Measured values as given in patent US7868026B2, “Therapeutic compounds” (Pfizer Inc., priority 2005, dated 2011).
Where two headings read alike, the source gives them in different places.

Columns and labels:
[1] = molecular target: T1, CYP3A4 (Homo sapiens, UniProt P08684); assay: Determination of compound Kiapp against recombinant CYP3A4 enzyme (BFC fluorescent substrate); type: biochemical
Description: 1. Determination of compound Kiapp
A determination of the Kiapp of the compounds of the invention against recombinant CYP3A4 enzyme was performed as follows. The assay was performed in a 100 mM sodium phosphate buffer pH 7.0, 5 mM TCEP and containing 2% dimethylformamide (final concentration) upon addition of substrate and inhibitor. A typical reaction for the determination of Kiapp values was carried at room temperature in a solid black Costar u-bottom 96-well polypropylene plate. In each well, recombinant CYP3A4 enzyme (5.5 nM or 8 nM, final concentration depending on the commercial source of the enzyme) was pre-incubated in the presence of the inhibitor for at least 30 minutes in the assay buffer. When pre-incubation was completed (˜30 min), the reaction was initiated by adding NADPH (200 uM, final concentration), and 7-benzyloxy-4-(trifluoromethyl)-coumarin (BFC) (5 uM, final concentration). The oxidation of the coumarin substrate was recorded by a 96-well plate reader POLARstar (BMG LABTECH, Offenburg, Germany).
The initial reaction velocities were measured during the first 5 min of the reaction when the release of the fluorescent product is linear with time, in the absence and in the presence of various concentrations of inhibitors. For non-partial & partial inhibitors, the Kiapp values were determined by using the equation for tight-binding inhibitor developed by Morrison, J F (Morrison J F. Biochim Biophys Acta. 1969, 185: 269-86) and by Szedlaseck S E et al. (Szedlascek, S. E., Ostafe, V., Serban, M., and Vlad, M.O. Biochem. J. 1988, 254:311-312), respectively.
The fluorescent substrate BFC was purchased from Sigma (St Louis, Mo.). Two commercial sources of recombinant enzymes were used in this study: recombinant CYP3A4−b5 enzyme (Baculosomes®) was purchased from Invitrogen (Carlsbad, Calif.) and the recombinant CYP3A4+b5 enzyme (Supersomes®) was purchased from BD Biosciences (Woburn, Mass.).

[2] = molecular target: T1, CYP3A4; assay: Determination of IC50 against CYP3A4 by measurement of inhibition of midazolam metabolism (human liver microsomes, 1-hydroxymidazolam by LC-MS/MS); type: biochemical; design: 0.1 mg/mL human liver microsomes; conditions: 2 μM midazolam, 0.1 mg/mL human liver microsomes
Description: 3. Determination of IC50 Against CYP3A4 by Measurement of Inhibition of Midazolam Metabolism
This assay was performed using a standard 96 well plate design. […] The incubation substrate mix contains 2 μM midazolam, 0.1 mg/mL human liver microsomes, 1 mM NADPH, and potassium phosphate buffer (100 mM, pH 7.4). Quantitation of metabolite peak area ratio against internal standard is determined by LC-MS/MS analysis. The production of 1-hydroxymidazolam from midazolam metabolism is determined after incubation for eight minutes by comparison to a standard curve generated for the metabolite.
Samples were analyzed in the MRM mode using a Sciex API 3000 mass spectrometer (Applied Biosystems, Foster City, Calif.) with a Paradigm MS4 binary pump (Michrom BioResources Inc., Auburn, Calif.) and a LEAP CTC PAL autosampler (LEAP Technologies, Carrboro, N.C.). A Phenomenex Synergi, 4μ, Polar-RP, 10×2.0 mm column (Phenomenex, Torrance, Calif.) was used for separation with a mobile phase composition of: 0.1% formic acid in water (A) and: 0.1% formic acid in methanol (B). The following gradient was used: […]
The sample injection volume was 10 μL and flow was split post-column with 0.4 mL/min going to the mass spectrometer. Analysis was performed using the following API 3000 mass spectrometer settings: […]

[3] = Baculo. enzyme preparation, read-out: Kiapp (BFC, Baculo.)
[4] = Super. enzyme preparation, read-out: Kiapp (BFC, Super.)

T1 sequence (P08684 whole entry): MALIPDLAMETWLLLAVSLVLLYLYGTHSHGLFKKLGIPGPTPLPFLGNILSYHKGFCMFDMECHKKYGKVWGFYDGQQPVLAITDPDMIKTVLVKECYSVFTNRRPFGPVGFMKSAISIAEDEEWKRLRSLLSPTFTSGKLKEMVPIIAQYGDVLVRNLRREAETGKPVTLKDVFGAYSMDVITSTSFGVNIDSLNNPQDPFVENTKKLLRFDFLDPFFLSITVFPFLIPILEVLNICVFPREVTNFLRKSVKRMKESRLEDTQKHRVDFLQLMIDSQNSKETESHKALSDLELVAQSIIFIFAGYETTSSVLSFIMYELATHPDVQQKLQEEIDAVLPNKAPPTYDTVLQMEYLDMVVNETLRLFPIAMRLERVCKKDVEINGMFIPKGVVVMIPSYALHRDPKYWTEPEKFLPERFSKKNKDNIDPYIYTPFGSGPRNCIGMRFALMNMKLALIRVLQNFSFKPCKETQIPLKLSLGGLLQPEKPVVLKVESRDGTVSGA

Row | Structure (SMILES) | Ki [1, 3] [nM] | Ki [1, 4] [nM] | IC50 [2] [nM]
1 | Cc1cncc(NS(=O)(=O)c2ccccc2C(=O)NCc2ccc(C#N)cc2Cl)c1 [Example 91, N-(2-chloro-4-cyanobenzyl)-2-{[(5-methylpyridin-3-yl)amino]sulfonyl}benzamide] | 58 | 17.2 | 18
2 | COc1ccccc1CNC(=O)c1ccccc1S(=O)(=O)Nc1cncc(C)c1 [Example 93, N-(2-methoxybenzyl)-2-{[(5-methylpyridin-3-yl)amino]sulfonyl}benzamide] | 166 | 14.7 | 10
3 | Cc1cncc(NS(=O)(=O)c2ccccc2C(=O)NCc2ccc3c(c2)CCO3)c1 [Example 94, N-(2,3-dihydro-1-benzofuran-5-ylmethyl)-2-{[(5-methylpyridin-3-yl)amino]sulfonyl}benzamide] | 182 | 25.7 | 16
4 | CC[C@H](C)CNC(=O)c1ccccc1S(=O)(=O)Nc1cncc(OC)c1 [Example 96, 2-{[(5-methoxypyridin-3-yl)amino]sulfonyl}-N-[(2S)-2-methylbutyl]benzamide] | 124 | 22.3 | 9
5 | COc1cncc(NS(=O)(=O)c2ccccc2C(=O)N(Cc2nccn2C)C(C)C)c1 [Example 97, N-isopropyl-2-{[(5-methoxypyridin-3-yl)amino]sulfonyl}-N-[(1-methyl-1H-imidazol-2-yl)methyl]benzamide] | 421 | 157 | 107
6 | COc1cncc(NS(=O)(=O)c2ccccc2C(=O)N(CCO)C(C)C)c1 [Example 98, N-(2-hydroxyethyl)-N-isopropyl-2-{[(5-methoxypyridin-3-yl)amino]sulfonyl}benzamide] | 506 | 196 | 51
7 | COc1cncc(NS(=O)(=O)c2ccccc2C(=O)N(CC(C)O)C(C)C)c1 (stereo not drawn) [Example 99, N-(2-hydroxypropyl)-N-isopropyl-2-{[(5-methoxypyridin-3-yl)amino]sulfonyl}benzamide] | 406 | 223 | 90
8 | CCCN(C(=O)c1ccccc1S(=O)(=O)Nc1cncc(OC)c1)C(C)C [Example 100, N-isopropyl-2-{[(5-methoxypyridin-3-yl)amino]sulfonyl}-N-propylbenzamide] | 88.3 | 35.7 | 14
9 | COc1ccncc1NS(=O)(=O)c1ccccc1C(=O)N(C)Cc1cccc(F)c1 [Example 104, N-(3-fluorobenzyl)-2-{[(4-methoxypyridin-3-yl)amino]sulfonyl}-N-methylbenzamide] | 141 | 23.5 | 35
10 | CCN(C(=O)c1ccccc1S(=O)(=O)Nc1cncc(OC)c1)C(C)C [Example 109, N-ethyl-N-isopropyl-2-{[(5-methoxypyridin-3-yl)amino]sulfonyl}benzamide] | 213 | 37.2 | 35
11 | COc1cncc(NS(=O)(=O)c2ccc(OC)cc2C(=O)NCc2ccc(F)cc2)c1 [Example 111, N-(4-fluorobenzyl)-5-methoxy-2-{[(5-methoxypyridin-3-yl)amino]sulfonyl}benzamide] | 27.3 | 6.8 | 10
12 | COCCN(C(=O)c1ccccc1S(=O)(=O)Nc1cncc(N)c1)C(C)C [Example 114, 2-{[(5-aminopyridin-3-yl)amino]sulfonyl}-N-isopropyl-N-(2-methoxyethyl)benzamide] | 466 | 105 | 134
13 | CN(c1cccnc1)S(=O)(=O)c1ccccc1C(=O)NCc1ccc(F)c(F)c1 [Example 327, N-(3,4-difluorobenzyl)-2-{[methyl(pyridin-3-yl)amino]sulfonyl}benzamide] | 86.4 | 19.8 | –
14 | O=C(NCc1ccc(F)c(F)c1)c1ccccc1S(=O)(=O)Nc1cncc(OCc2ccccc2)c1 [Example 393, 2-({[5-(benzyloxy)pyridin-3-yl]amino}sulfonyl)-N-(3,4-diflorobenzyl)benzamide] | – | – | 8

Continued, values first:

Row | Ki [1, 3] [nM] | Ki [1, 4] [nM] | IC50 [2] [nM] | Structure (SMILES)
15 | 45.7 | 17.5 | 22 | Cc1cncc(NS(=O)(=O)c2ccccc2C(=O)NC(C(C)C)C(C)C)c1 [Example 92, N-(1-isopropyl-2-methylpropyl)-2-{[(5-methylpyridin-3-yl)amino]sulfonyl}benzamide]
16 | 78 | 25.4 | 8 | Cc1cncc(NS(=O)(=O)c2ccccc2C(=O)NC(C)CC(C)C)c1 (stereo not drawn) [Example 95, N-(1,3-dimethylbutyl)-2-{[(5-methylpyridin-3-yl)amino]sulfonyl}benzamide]
17 | 244 | 54.8 | 26 | CC[C@@H](C)NC(=O)c1ccccc1S(=O)(=O)Nc1cncc(OC)c1 [Example 101, 2-{[(5-methoxypyridin-3-yl)amino]sulfonyl}-N-[(1R) -1-methylpropyl]benzamide]
18 | 375 | 56 | 55 | CC[C@H](C)NC(=O)c1ccccc1S(=O)(=O)Nc1cncc(OC)c1 [Example 102, 2-{[(5-methoxypyridin-3-yl)amino]sulfonyl}-N-[(1S) -1-methylpropyl]benzamide]
19 | 129 | 26 | 21 | CCOc1ccncc1NS(=O)(=O)c1ccccc1C(=O)N(C)Cc1cccc(F)c1 [Example 103, 2-{[(4-ethoxypyridin-3-yl)amino]sulfonyl}-N-(3-fluorobenzyl)-N-methylbenzamide]
20 | 83.1 | 28.6 | 21 | CCOc1ccncc1NS(=O)(=O)c1ccccc1C(=O)NC(C)(C)CC [Example 105, N-(1,1-dimethylpropyl)-2-{[(4-ethoxypyridin-3-yl)amino]sulfonyl}benzamide]
21 | 345 | 87.5 | 51 | CCC(C)(C)NC(=O)c1ccccc1S(=O)(=O)Nc1cnccc1OC [Example 106, N-(1,1-dimethylpropyl)-2-{[(4-methoxypyridin-3-yl)amino]sulfonyl}benzamide]
22 | 214 | 44 | 57 | CCOc1ccncc1NS(=O)(=O)c1ccccc1C(=O)N[C@@H](C)C(C)C [Example 107, N-[(1S)-12-dimethylpropyl]-2-{[(4-ethoxypyridin-3-yl)amino]sulfonyl}benzamide]
23 | 506 | 115 | 98 | COc1ccncc1NS(=O)(=O)c1ccccc1C(=O)N[C@@H](C)C(C)C [Example 108]
24 | 156 | 50.4 | 26 | CCOc1ccncc1NS(=O)(=O)c1ccccc1C(=O)N[C@H](C)C(C)C [Example 110, N-[(1R)-12-dimethylpropyl]-2-{[(4-ethoxypyridin-3-yl)amino]sulfonyl}benzamide]
25 | 438 | 119 | 46 | COc1ccncc1NS(=O)(=O)c1ccccc1C(=O)N[C@H](C)C(C)C [Example 112, N-[(1R)-12-dimethylpropyl]-2-{[(4-methoxypyridin-3-yl)amino]sulfonyl}benzamide]
26 | 698 | 97.5 | 90 | CCC(C)NC(=O)c1ccccc1S(=O)(=O)Nc1cncc(N)c1 (stereo not drawn) [Example 113, 2-{[(5-aminopyridin-3-yl)amino]sulfonyl}-N-(sec-butyl)benzamide]
27 | 124 | 26 | 23 | CCOc1ccncc1NS(=O)(=O)c1ccccc1C(=O)NCC(C)CC (stereo not drawn) [Example 115, 2-{[(4-ethoxypyridin-3-yl)amino]sulfonyl}-N-(2-methylbutyl)benzamide]
28 | 317 | 50.9 | 33 | CCC(C)CNC(=O)c1ccccc1S(=O)(=O)Nc1cnccc1OC (stereo not drawn) [Example 116, 2-{[(4-methoxypyridin-3-yl)amino]sulfonyl}-N-(2-methylbutyl)benzamide]
